From patent US8445536B2, “Arginine-containing compositions and methods for increasing blood flow using same” (Ajinomoto Co., Inc., priority 2005, dated 2013)
Like-named read-outs stand apart in the source and are kept apart here.

What was measured:
[1] = test system: male SD rats; assay: Test Example 2: blood flow in the capillaries of various organs, microsphere method
Method: (b) Operation: Catheters were inserted into the carotid artery, jugular vein, and femoral artery of rats under anesthesia.
After taking enough time from the second administration of the microsphere, the rats were euthanasized, and the muscles, digestive tracts, liver, kidneys, spleen, heart, brain, adipose tissues, and abdominal skin were extracted. Then, the microspheres contained in each organ were collected and the rate of change in blood flow was calculated for each organ from the amount of the microspheres.

[2] = test system: male SD rats; assay: Test Example 2: variation of blood pressure; conditions: 50 or 150 mg of arginine per 1 kg body weight, iv over 30 min
[3] = test system: male SD rats; assay: Test Example 1: blood flow at the skin of the lower thighs, laser Doppler blood-flowmeter; conditions: for Maximum increasing rate of blood flow (Before administration: 100%): skin of lower thighs
[4] = Test Example 3: concentration of free arginine in the blood plasma on intravenous arginine; format: in vivo, rats; conditions: for concentration at 10 min / concentration at 20 min / concentration at 30 min / concentration at 40 min: Sprague-Dawley, rat, plasma, iv
Excerpt: (c) Rats were anesthetized by pentobarbital. […] (b) Administration: […]

[5] = test system: human beings; conditions: human beings of average weight 78 kg, cited from earlier work
[6] = test system: male SD rats; assay: Test Example 1: blood pressure when administering arginine to rats (arterial catheter); conditions: 500 mg of arginine per 1 kg body weight, iv over 30 min
[7] = test system: male SD rats; assay: Test Example 5: amounts of Evans' Blue delivered to various organs after arginine
Method: (b) Operation: A catheter was inserted into the jugular vein of rats under anesthesia. Then, a blood sample was collected from the catheter.
After sufficient time, the rats were euthanasized, and the muscles, digestive tracts, liver, kidneys, spleen, heart, brain, adipose tissues, and abdominal skin were extracted. Then, Evans' Blue was released by immersing each organ in a formalin solution, and the amount of Evans' Blue in each organ was calculated from the absorbance obtained by the spectrophotometer.

[8] = test system: male SD rats; assay: Test Example 4: blood pressure when administering arginine and glutamine to rats; conditions: 50 mg arginine/kg over 30 min; 20 to 30 min after injection; average of 3 rats
[9] = 50 mg of arginine per 1 kg body weight
[10] = 150 mg of arginine per 1 kg body weight

## N=C(N)NCCC[C@H](N)C(=O)O [arginine]
[1]; [9]
  blood flow in the capillaries of the muscles and the brain: significantly increased
[1]; [10]
  blood flow in the capillaries, all organs measured: increased for all organs measured
[1]; Abdominal skin, 50 mg/kg of body weight
  Changes in blood flow after the administration of arginine (before administration 100%): 117%
[1]; Abdominal skin, 150 mg/kg of body weight
  Changes in blood flow after the administration of arginine (before administration 100%): 134%
[1]; Adipose tissues, 50 mg/kg of body weight
  Changes in blood flow after the administration of arginine (before administration 100%): 99%
[1]; Adipose tissues, 150 mg/kg of body weight
  Changes in blood flow after the administration of arginine (before administration 100%): 116%
[1]; Back skin, 50 mg/kg of body weight
  Changes in blood flow after the administration of arginine (before administration 100%): 107%
[1]; Back skin, 150 mg/kg of body weight
  Changes in blood flow after the administration of arginine (before administration 100%): 118%
[1]; Brain, 50 mg/kg of body weight
  Changes in blood flow after the administration of arginine (before administration 100%): 126%
[1]; Brain, 150 mg/kg of body weight
  Changes in blood flow after the administration of arginine (before administration 100%): 137%
[1]; Duodenum, 50 mg/kg of body weight
  Changes in blood flow after the administration of arginine (before administration 100%): 123%
[1]; Duodenum, 150 mg/kg of body weight
  Changes in blood flow after the administration of arginine (before administration 100%): 142%
[1]; Heart, 50 mg/kg of body weight
  Changes in blood flow after the administration of arginine (before administration 100%): 126%
[1]; Heart, 150 mg/kg of body weight
  Changes in blood flow after the administration of arginine (before administration 100%): 140%
[1]; Kidneys, 50 mg/kg of body weight
  Changes in blood flow after the administration of arginine (before administration 100%): 86%
[1]; Kidneys, 150 mg/kg of body weight
  Changes in blood flow after the administration of arginine (before administration 100%): 91%
[1]; Liver, 50 mg/kg of body weight
  Changes in blood flow after the administration of arginine (before administration 100%): 92%
[1]; Liver, 150 mg/kg of body weight
  Changes in blood flow after the administration of arginine (before administration 100%): 101%
[1]; Muscles, 50 mg/kg of body weight
  Changes in blood flow after the administration of arginine (before administration 100%): 164%
[1]; Muscles, 150 mg/kg of body weight
  Changes in blood flow after the administration of arginine (before administration 100%): 157%
[1]; Spleen, 50 mg/kg of body weight
  Changes in blood flow after the administration of arginine (before administration 100%): 104%
[1]; Spleen, 150 mg/kg of body weight
  Changes in blood flow after the administration of arginine (before administration 100%): 115%
[2]
  variation of blood pressure: ≤ 10 mmHg
[3]; 50 mg arginine/kg iv over 30 min, 20 to 30 min after injection
  Maximum increasing rate of blood flow (Before administration: 100%): +43.9%
[3]; 150 mg arginine/kg iv over 30 min, 20 to 30 min after injection
  Maximum increasing rate of blood flow (Before administration: 100%): +29.3%
[3]; 500 mg arginine/kg iv over 30 min, 50 to 60 min after injection
  Maximum increasing rate of blood flow (Before administration: 100%): +85.0%
[3]; all rats given 50 mg or more of arginine per 1 kg body weight
  amount of blood flowing to the skin of the lower thighs: increased
[4]; [9]
  rise of the concentration of free arginine in the blood plasma at maximum: 46.1 micrograms per 1 mL
[4]; [10]
  rise of the concentration of free arginine in the blood plasma at maximum: 177.5 micrograms per 1 mL
[4]; 50 mg/kg
  concentration at 10 min: 43.6 µg/mL
  concentration at 20 min: 46.1 µg/mL
  concentration at 30 min: 38.8 µg/mL
  concentration at 40 min: 15.7 µg/mL
[4]; 150 mg/kg
  concentration at 10 min: 156 µg/mL
  concentration at 20 min: 115 µg/mL
  concentration at 30 min: 178 µg/mL
  concentration at 40 min: 77.2 µg/mL
[5]; 6 g arginine parenterally
  vascular resistance: did not cause either effect
[5]; 30 g arginine parenterally
  vascular resistance: lowered
[6]
  death due to rapid reduction of blood pressure: Two out of three rats died
[7]; 50 or 150 mg of arginine per 1 kg, muscles, digestive tract, liver, kidneys, spleen, brain, adipose tissues, skin
  delivered amounts of Evans' Blue to the organs (tendency): increased
[7]; Abdominal skin, 150 mg/kg of BW
  Changes in the amounts of Evans' Blue after administering arginine (before administration 100%): 207%
[7]; Adipose tissues, 50 mg/kg of BW
  Changes in the amounts of Evans' Blue after administering arginine (before administration 100%): 430%
[7]; Adipose tissues, 150 mg/kg of BW
  Changes in the amounts of Evans' Blue after administering arginine (before administration 100%): 160%
[7]; Back skin, 50 mg/kg of BW
  Changes in the amounts of Evans' Blue after administering arginine (before administration 100%): 315%
[7]; Back skin, 150 mg/kg of BW
  Changes in the amounts of Evans' Blue after administering arginine (before administration 100%): 331%
[7]; Brain, 50 mg/kg of BW
  Changes in the amounts of Evans' Blue after administering arginine (before administration 100%): 169%
[7]; Duodenum, 50 mg/kg of BW
  Changes in the amounts of Evans' Blue after administering arginine (before administration 100%): 143%
[7]; Duodenum, 150 mg/kg of BW
  Changes in the amounts of Evans' Blue after administering arginine (before administration 100%): 85%
[7]; Gastrocnemius muscle, 50 mg/kg of BW
  Changes in the amounts of Evans' Blue after administering arginine (before administration 100%): 219%
[7]; Gastrocnemius muscle, 150 mg/kg of BW
  Changes in the amounts of Evans' Blue after administering arginine (before administration 100%): 154%
[7]; Heart, 50 mg/kg of BW
  Changes in the amounts of Evans' Blue after administering arginine (before administration 100%): 87%
[7]; Heart, 150 mg/kg of BW
  Changes in the amounts of Evans' Blue after administering arginine (before administration 100%): 85%
[7]; Kidneys, 50 mg/kg of BW
  Changes in the amounts of Evans' Blue after administering arginine (before administration 100%): 161%
[7]; Liver, 50 mg/kg of BW
  Changes in the amounts of Evans' Blue after administering arginine (before administration 100%): 181%
[7]; Liver, 150 mg/kg of BW
  Changes in the amounts of Evans' Blue after administering arginine (before administration 100%): 173%
[7]; Spleen, 50 mg/kg of BW
  Changes in the amounts of Evans' Blue after administering arginine (before administration 100%): 101%
[7]; Spleen, 150 mg/kg of BW
  Changes in the amounts of Evans' Blue after administering arginine (before administration 100%): 92%
[8]
  Maximum variation of blood pressure: +11.4 mmHg
